Among the data in patent US6693123B2 (University of Pittsburgh, priority 1995, dated 2004) are inhibition values, retold here.

Structures can show the parent of a compound that is named as a salt.

The first experiment deals with T1, Rat brain protein farnesyltransferase (Rattus norvegicus, UniProt Q02293+Q04631).
T1 construct: The enzyme is purified according to Reiss, Y., et al., Cell, 62: 81-88 (1990), utilizing steps one through three; from tissue; host or cells: rat brain
The experiment can be described thus: In vitro inhibition of protein farnesyltransferase, Amersham scintillation proximity assay with biotin-K Ras B fragment. It counts as biochemical. The following applies: Inhibition of farnesyltransferase; compound at 1 × 10^−6 M (Table 2); read-out: % inhibition at 1 × 10^−6 M. From the text:
The ability of the compounds of the invention to inhibit protein farnesyltransferase or protein geranylgeranyltransferase can be measured according to the method of Moores, et al., J. Biol. Chem. 266: 14603 (1991) or the method of Vogt, et al., J. Biol. Chem. 270:660-664 (1995). In addition, procedures for determination of the inhibition of farnesylation of the oncogene protein Ras are described by Goldstein, et al., J. Biol. Chem., 266:15575-15578 (1991) and by Singh in U.S. Pat. No. 5,245,061.
In addition, in vitro inhibition of protein farnesyltransferase may be measured by the following procedure. Rat brain protein farnesyltransferase activity is measured using an Amersham Life Science commercial scintillation proximity assay kit and substituting a biotin-K Ras B fragment (biotin-[…]Ue-Met-CO2H), 0.1 mM final concentration, for the biotin-lamin substrate provided by Amersham. The enzyme is purified according to Reiss, Y., et al., Cell, 62: 81-88 (1990), utilizing steps one through three. […]
The % inhibition of protein farnesyltransferase was determined for representative compounds of the invention.
(In general: SPA uses beads or plates that emit light when radiolabelled molecules are held near them.)
What is called inhibition is the relative decrease from the control value, in per cent. As to `CS(=O)(=O)CC[C@H](NC(=O)c1ccc(C(O)C(O)c2cccnc2)cc1-c1ccccc1)C(=O)O` (mixture of isomers) [Example 221, N-{4-[2-(Pyrid-3-yl)-1,2-dihydroxyethyl]-2-phenylbenzoyl]-2-amino-4-(methylsulfonyl)butanoic Acid], the inhibition at 1 µM was determined as 55%.
On the same count and under the same terms, under `CSCC[C@@H](NC(=O)c1ccc(CNc2cccnc2)cc1-c1ccccc1)C(=O)O` (stereo in doubt) [Example 189, [4-(3-Pyridylaminomethyl)-2-phenylbenzoyl]methionine] stands 88%; under `COC(=O)[C@H](CCS(C)(=O)=O)NC(=O)c1ccc(CNc2cccnc2)cc1-c1ccccc1` (stereo in doubt) [Example 238, N-[4-(3-Pyridylaminomethyl)-2-phenylbenzoyl]-2-amino-4-(methylsulfonyl)butanoic Acid Methyl Ester], 22%.
With `COC(=O)[C@H](CCSC)N(C)C(=O)c1ccc(CNc2cccnc2)cc1-c1ccccc1` [Example 158, [4-(3-Pyridylaminomethylene)-2-phenylbenzoyl]-N-methylmetionine Methyl Ester], the inhibition at 1 µM was 2%.
On the same count and under the same terms, under `CSCC[C@@H](C(=O)O)N(C)C(=O)c1ccc(CNc2cccnc2)cc1-c1ccccc1` [Example 159, [4-(3-Pyridylaminomethyl)-2-phenylbenzoyl]-N-methylmethionine] stands 84%; under `CSCC[C@H](NC(=O)c1ccc(CNc2ccccn2)cc1-c1ccccc1)C(=O)O` [Example 160, [4-(2-Pyridylaminomethyl)-2-phenylbenzoyl]methionine], 30%.
Still for that read-out and setting: under `CSCC[C@H](NC(=O)c1ccc(CNc2ccncc2)cc1-c1ccccc1)C(=O)O` [Example 161, [4-(4-Pyridylaminomethyl)-2-phenylbenzoyl]methionine] stands 54%; under `CSCC[C@H](NC(=O)c1ccc(NCc2c[nH]cn2)cc1-c1ccccc1)C(=O)O` [Example 167, [4-(1H-Imidazol-4-ylmethyl)amino-2-phenylbenzoyl]methionine Hydrochloride], 98%.
On to `CSCC[C@H](NC(=O)c1ccc(NC(=O)c2c[nH]cn2)cc1-c1ccccc1)C(=O)O` [Example 168, [4-(1H-Imidazol-4-ylcarbonyl)amino-2-phenylbenzoyl]methionine Hydrochloride], for which the inhibition at 1 µM was 92%.
As for `CSCC[C@H](NC(=O)c1ccc(NC(=O)c2nccn2C)cc1-c1ccccc1)C(=O)O` [Example 186, [4-(1H-1-Methylimidazol-2-ylcarboxyamino)-2-phenylbenzoyl]methionine], the inhibition at 1 µM was found to be 86%.
As for `C[C@H](NC(=O)c1ccc(COc2cccnc2)cc1-c1ccccc1)C(=O)O` [Example 187, [4-(3-Pyridyloxymethyl)-2-phenylbenzoyl]alanine], the inhibition at 1 µM was 68%.

Still in this experiment, the particulars now being: Inhibition of farnesyltransferase; compound at 1 × 10^−8 M (Table 4); read-out: % inhibition at 1 × 10^−8 M.
On to `CSCC[C@@H](NC(=O)c1ccc(CNc2cccnc2)cc1-c1ccccc1C)C(=O)O` (stereo in doubt) [Example 400, [4-(3-Pyridylaminomethyl)-2-(2-methylphenyl)benzoyl]methionine], for which the inhibition at 0.01 µM worked out at 98%.

Staying with this experiment, now noted: read-out: % inhibition at 1 × 10^−7 M.
`CSCC[C@H](NC(=O)c1ccc(/C=C/c2cnc3ccccc3c2)cc1-c1ccccc1C)C(=O)O` (stereo in doubt) [Example 487, N-[4-(2-Quinolin-3-ylethen-1-yl)-2-(2-methylphenyl)benzoyl]methionine Lithium Salt]: the inhibition at 0.1 µM turned out to be 81%.
`Cc1ccccc1-c1cc(CCc2cnc3ccccc3c2)ccc1C(=O)N[C@@H](CC[S+](C)[O-])C(=O)O` (stereo in doubt) [Example 490, N-[4-(2-Quinolin-3-ylethyl)-2-(2-methylphenyl)benzoyl]-2-amino-4-methylsulfinylbutanoic Acid Lithium Salt]: the inhibition at 0.1 µM stood at 70%.
As for `CSCC[C@H](NC(=O)c1ccc(/C=C/c2cncc3ccccc23)cc1-c1ccccc1C)C(=O)O` (stereo in doubt) [Example 491, N-[4-(2-Isoquinolin-4-ylethen-1-yl)-2-(2-methylphenyl)benzoyl]methionine Lithium Salt], the inhibition at 0.1 µM worked out at 94%.
